According to article PMC2775441 (Pediatric blood & cancer, 2009):
Marks after values point to notes of the source that are not given here.

What was measured:
[1] = Phase I dose escalation: dose-limiting toxicity, MTD and adverse events; details: human, in vivo
[2] = system: refractory pediatric central nervous system tumors; test: Tumor response by neuro-imaging; format: in vivo, human
[3] = Plasma pharmacokinetics of SU5416 and its metabolites; format: in vivo, human; details: for half-life: human, plasma, iv
[4] = adults, interval between successive doses less than 7 days; ref [20]; cited from earlier work
[5] = ref [11]; cited from earlier work
[6] = system: CYP3A4; details: ref [33], [39]; cited from earlier work
[7] = adults with solid tumors, ref [16], [18], [23]–[25], [30], cited from earlier work
[8] = Stratum I (no EIACD), 110 mg/m^2 IV, week 1, 13 patients, mean ± SD
[9] = Stratum I (no EIACD), 110 mg/m^2 IV, week 6, 10 patients, mean ± SD
[10] = Stratum I (no EIACD), 145 mg/m^2 IV, week 1, 6 patients, mean ± SD
[11] = Stratum I (no EIACD), 145 mg/m^2 IV, week 6, 3 patients, mean ± SD
[12] = Stratum I (no EIACD), all doses IV, week 6, 13 patients, mean ± SD
[13] = Stratum II (EIACD), 35 mg/m^2 IV, week 1, 1 patient
[14] = Stratum II (EIACD), 48 mg/m^2 IV, week 1, 2 patients, mean ± SD
[15] = Stratum II (EIACD), 65 mg/m^2 IV, week 1, 6 patients, mean ± SD
[16] = Stratum II (EIACD), all doses IV, week 1, 9 patients, mean ± SD
[17] = Stratum I (no EIACD), SU5416 110 mg/m^2 IV, week 1, 13 patients, mean ± SD
[18] = Stratum I (no EIACD), SU5416 110 mg/m^2 IV, week 6, 10 patients, mean ± SD
[19] = Stratum I (no EIACD), SU5416 145 mg/m^2 IV, week 1, 6 patients, mean ± SD
[20] = Stratum I (no EIACD), SU5416 145 mg/m^2 IV, week 6, 3 patients, mean ± SD
[21] = Stratum I (no EIACD), all SU5416 doses IV, week 1, 19 patients, mean ± SD
[22] = Stratum I (no EIACD), all SU5416 doses IV, week 6, 13 patients, mean ± SD
[23] = Stratum II (EIACD), SU5416 35 mg/m^2 IV, week 1, 1 patient
[24] = Stratum II (EIACD), SU5416 48 mg/m^2 IV, week 1, 2 patients, mean ± SD
[25] = Stratum II (EIACD), SU5416 65 mg/m^2 IV, week 1, 6 patients, mean ± SD
[26] = Stratum II (EIACD), all SU5416 doses IV, week 1, 9 patients, mean ± SD

## Cc1cc(C)c(/C=C2\C(=O)Nc3ccccc32)[nH]1 [SU5416, semaxanib]
[1]
  most serious drug-related toxicities: grade 3 liver enzyme abnormalities, arthralgia and hallucinations
[2]; Pt 1, Glioblastoma Multiforme, Spinal Cord
  Stable Disease Duration (months): 5.3 months
[2]; Pt 1, Glioblastoma Multiforme, tumor size, 1.4 months from treatment
  Change from baseline (%): 0%
[2]; Pt 3, Choroid Plexus Carcinoma, Cerebrum
  Stable Disease Duration (months): 14.3 months
[2]; Pt 8, Glioblastoma Multiforme, FLAIR, 2.7 months from treatment, baseline 32.7
  Tumor size: 35.5 cm^3
[2]; Pt 8, Glioblastoma Multiforme, FLAIR, 8.1 months from treatment, baseline 32.7
  Tumor size: 29.1 cm^3
[2]; Pt 8, Glioblastoma Multiforme, FLAIR, 9.7 months from treatment, baseline 32.7
  Tumor size: 23.9 cm^3
[2]; Pt 8, Glioblastoma Multiforme, FLAIR, 11.1 months from treatment, baseline 32.7
  Tumor size: 30.5 cm^3
[2]; Pt 8, Glioblastoma Multiforme, FLAIR, 15.9 months from treatment, baseline 32.7
  Tumor size: 28.9 cm^3
[2]; Pt 8, Glioblastoma Multiforme, Parietal lobe
  Stable Disease Duration (months): 15.9 months
[2]; Pt 19, Astrocytoma, Anaplastic, Frontal lobe
  Stable Disease Duration (months): 10.6 months
[2]; Pt 26, Astrocytoma, NOS, Enhancement, 2.6 months from treatment, baseline 28.1
  Tumor size: 31.9 cm^2
[2]; Pt 26, Astrocytoma, NOS, Enhancement, 4.4 months from treatment, baseline 28.1
  Tumor size: 34.7 cm^2
[2]; Pt 26, Astrocytoma, NOS, Enhancement, 5.9 months from treatment, baseline 28.1
  Tumor size: 34.7 cm^2
[2]; Pt 26, Astrocytoma, NOS, Supratentorial
  Stable Disease Duration (months): 5.9 months
[2]; Stratum I, 16 evaluable
  Radiographic response after course 1: CR or PR (number of patients): 0
  Radiographic response after course 1: PD (number of patients): 10
  Radiographic response after course 1: PD (percent of evaluable patients): 63%
  Radiographic response after course 1: SD (number of patients): 6
  Radiographic response after course 1: SD (percent of evaluable patients): 38%
[2]; Stratum I, patients evaluable for response
  patients with sustained (prolonged) stable disease of possible clinical benefit: 4 of 16
[2]; Stratum II, 6 evaluable
  Radiographic response after course 1: CR or PR (number of patients): 0
  Radiographic response after course 1: PD (number of patients): 5
  Radiographic response after course 1: PD (percent of evaluable patients): 83%
  Radiographic response after course 1: SD (number of patients): 1
  Radiographic response after course 1: SD (percent of evaluable patients): 17%
[2]; either stratum
  objective responses: No objectives responses
[3]; [8]
  CL (total body clearance): 28.7 ± 12.8 ^a liter/h/m^2
  Vz (apparent volume of distribution): 43.3 ± 20.3 liter/m^2
[3]; [9]
  CL (total body clearance): 38.0 ± 28.7 liter/h/m^2
  Vz (apparent volume of distribution): 65.5 ± 26.7 liter/m^2
[3]; [10]
  CL (total body clearance): 21.3 ± 11.5 liter/h/m^2
  Vz (apparent volume of distribution): 39.1 ± 24.8 liter/m^2
[3]; [11]
  CL (total body clearance): 26.1 ± 17.1 liter/h/m^2
  Vz (apparent volume of distribution): 37.2 ± 33.5 liter/m^2
[3]; [12]
  CL (total body clearance): 34.9 ± 24.9 liter/h/m^2
  Vz (apparent volume of distribution): 57.5 ± 34.6 liter/m^2
[3]; [13]
  CL (total body clearance): 33.1 liter/h/m^2
  Vz (apparent volume of distribution): 23.5 liter/m^2
[3]; [14]
  CL (total body clearance): 48.0 ± 5.1 liter/h/m^2
  Vz (apparent volume of distribution): 74.3 ± 71.7 liter/m^2
[3]; [15]
  CL (total body clearance): 27.8 ± 11.4 liter/h/m^2
  Vz (apparent volume of distribution): 45.5 ± 26.7 liter/m^2
[3]; [16]
  CL (total body clearance): 32.0 ± 13.1 liter/h/m^2
  Vz (apparent volume of distribution): 47.1 ± 30.6 liter/m^2
[3]; 48 mg/m2, t1/2,z (terminal phase half-life), Stratum II (EIACD), 48 mg/m^2 IV, week 1, 2 patients, mean ± SD
  half-life: 64.2 ± 54 min
[3]; 65 mg/m2, t1/2,z (terminal phase half-life), Stratum II (EIACD), 65 mg/m^2 IV, week 1, 6 patients, mean ± SD
  half-life: 67.8 ± 37.2 min
[4]
  increase of clearance upon repeated administration: more than 50%
[5]
  penetration into the CSF: does not penetrate the CSF
[6]
  role of CYP3A4 in elimination of SU5416: major isozyme catalyzing the initial oxidation
[7]; intravenously twice weekly
  MTD in adults: 145 mg/m^2
[7]
  Dose-limiting toxicities in adults: headache, nausea, and vomiting

## Cc1cc(C(=O)O)[nH]c1C=C1C(=O)Nc2ccccc21 [SU6595]
[3]; [17]
  Relative extent of metabolism (%), AUC(0-t) metabolite/parent: SU6595: 57.4 ± 36.4%
[3]; [18]
  Relative extent of metabolism (%), AUC(0-t) metabolite/parent: SU6595: 72.9 ± 43.9%
[3]; [19]
  Relative extent of metabolism (%), AUC(0-t) metabolite/parent: SU6595: 37.4 ± 25.3%
[3]; [20]
  Relative extent of metabolism (%), AUC(0-t) metabolite/parent: SU6595: 72.4 ± 26.1%
[3]; [21]
  Relative extent of metabolism (%), AUC(0-t) metabolite/parent: SU6595: 50.1 ± 33.2%
[3]; [22]
  Relative extent of metabolism (%), AUC(0-t) metabolite/parent: SU6595: 72.8 ± 39.1%
[3]; [23]
  Relative extent of metabolism (%), AUC(0-t) metabolite/parent: SU6595: 55.2%
[3]; [24]
  Relative extent of metabolism (%), AUC(0-t) metabolite/parent: SU6595: 26.4 ± 1.1%
[3]; [25]
  Relative extent of metabolism (%), AUC(0-t) metabolite/parent: SU6595: 57.3 ± 20.4%
[3]; [26]
  Relative extent of metabolism (%), AUC(0-t) metabolite/parent: SU6595: 48.1 ± 21.3%

## Cc1cc(CO)[nH]c1/C=C1\C(=O)Nc2ccccc21 [SU9838]
[3]; [17]
  Relative extent of metabolism (%), AUC(0-t) metabolite/parent: SU9838: 3.95 ± 1.59%
[3]; [18]
  Relative extent of metabolism (%), AUC(0-t) metabolite/parent: SU9838: 4.41 ± 2.28%
[3]; [19]
  Relative extent of metabolism (%), AUC(0-t) metabolite/parent: SU9838: 3.98 ± 2.13%
[3]; [20]
  Relative extent of metabolism (%), AUC(0-t) metabolite/parent: SU9838: 5.24 ± 0.81%
[3]; [21]
  Relative extent of metabolism (%), AUC(0-t) metabolite/parent: SU9838: 3.96 ± 1.68%
[3]; [22]
  Relative extent of metabolism (%), AUC(0-t) metabolite/parent: SU9838: 4.59 ± 2.11%
[3]; [23]
  Relative extent of metabolism (%), AUC(0-t) metabolite/parent: SU9838: 2.44%
[3]; [24]
  Relative extent of metabolism (%), AUC(0-t) metabolite/parent: SU9838: 4.07 ± 1.37%
[3]; [25]
  Relative extent of metabolism (%), AUC(0-t) metabolite/parent: SU9838: 5.72 ± 3.41%
[3]; [26]
  Relative extent of metabolism (%), AUC(0-t) metabolite/parent: SU9838: 4.82 ± 2.69%
